Here are results for 18 substances from patent EP0907658B1 (PRINCE OF WALES MEDICAL RESEARCH INSTITUTE LIMITED, priority 1996, dated 2004).

Ends that are not written are not given here.

The target in one assay is Y2-like receptors. Kind of assay: Inhibition of the increase in pulse interval evoked by vagus nerve stimulation in anaesthetised rats (prejunctional activity). Format: in vivo. The settings on record: for EC50 ΔP1%: change in pulse interval, anaesthetised rats, intravenous peptide; for in vivo activity at Y2 receptors (potency as inhibitor of the effect of vagal stimulation on heart rate): compared with Ac[L28,L31]NPY24-36. As for the experimental part: (§1) Experiments were carried out on adult rats (Wistar) of both sexes (250-350g), anaesthetised with sodium pentobarbitone (Nembutal, Boehringer-Ingleheim; 60 mg/kg, i.p.). The trachea was cannulated and the animal artificially ventilated. The femoral vein was cannulated for administration of peptides and further doses of anaesthetic. The left femoral artery was cannulated to record arterial pressure. Both vagus nerves were cut. […] The frequency was chosen to increase pulse interval by approximately 100 ms, a submaximal effect on this variable. The electrocardiogram was measured using needle electrodes and monitored on one channel of an osciloscope. Pulse interval (the period between successive beats of the heart) was recorded beat-by-beat by triggering from ECG. Pulse interval and arterial pressure were recorded on the pen recorder.
Dose-response curves were constructed from group data for all rats. Because of the long time-course of action of the peptides tested, not all peptides were given to each rat. Usually however, each rat received neuropeptide Y and two other peptides.
As an indication of prejunctional activity two parameters were measured; the maximum percent inhibition of the increase in pulse interval evoked by stimulation of the vagus nerve following injection of peptide and the time to half recovery of this effect (T50). For pressor action, an indicator of postjunctional activity, two parameters were also measured; the peak pressor response following injection of peptide and the duration of the increase in blood pressure. These indices give a reliable measure of the actions of a peptide at pre-and postjunctional sites, and have been used previously in this laboratory for this purpose; Potter et al., 1989; Potter et al., 1991). Results were analysed using a one-way ANOVA.

Assay [1] has as its system neuropeptide Y Y2 receptor subtype. The conditions noted are these: SMS-KAN cells; cited from earlier work.
The subject of assay [2] is neuropeptide Y Y1 receptor type. The conditions noted are these: SK-N-MC cells; cited from earlier work.
Assay [3] deals with human neuropeptide Y Y1 receptor. The settings on record: Y1 receptor expressed in fibroblast cells; cited from earlier work.
In another assay the test system is human Y2 receptor. Put plainly: [125I]NPY receptor binding assay on SMS-MSN cells. The conditions noted are these: for IC50: SMS-MSN cells, 30 pM [125I]NPY. As for the experimental part:
SK-N-MC cells expressing the human Y1 receptor and SMS-MSN cells expressing the human Y2 receptor were obtained from the ATCC. They were cultured in 1:1 DMEM:Ham's F12 medium (ICN) containing 10% fetal calf serum, 0.1% non-essential amino acids, 0.2 mM glutamine, and 0.056% sodium bicarbonate. Confluent cells were harvested in scraping and pellets were stored at -80°C. On the day of use cells were thawed, washed once in binding buffer salts, passed several times through a 22 ga. needle, and the protein content was assayed using bicinchoninic acid (BCA kit, Pierce).
Just before use, plates were filtered and washed twice with 50 mM Tris-HCI pH 7.4 / 0.1% BSA. […] Binding was terminated by filtration. […] Specific binding was analysed by nonlinear regression using a single-site fitting function (Graphpad Prism). Nonspecific binding was defined by binding in the presence of 1 µM competitor.

In the next assay the test system is Y1 receptors. Put plainly: Pressor response (blood pressure increase) after peptide injection in anaesthetised rats (postjunctional activity). It is filed as in vivo. The procedure: as §1, with “The” for “The frequency was chosen to increase pulse interval by approximately 100 ms, a submaximal effect on this variable. The”
Dose-response curves were constructed from group data for all rats. Because of the long time-course of action of the peptides tested, not all peptides were given to each rat.
As an indication of prejunctional activity two parameters were measured; the maximum percent inhibition of the increase in pulse interval evoked by stimulation of the vagus nerve following injection of peptide and the time to half recovery of this effect (T50). For pressor action, an indicator of postjunctional activity, two parameters were also measured; the peak pressor response following injection of peptide and the duration of the increase in blood pressure. […] Results were analysed using a one-way ANOVA.

Assay [4] deals with neuropeptide Y Y1 receptor. The conditions noted are these: studies in vivo; cited from earlier work.
Assay [5] deals with neuropeptide Y Y2 (prejunctional). The settings on record: studies in vivo; cited from earlier work.
Assay [6] has as its system transmitter release from renal nerves. Put plainly: Kidney blood flow: increase of renal vascular resistance elicited by renal nerve stimulation. It is filed as in vivo, dogs. The settings on record: 40 nmol dose; Figure 1. As for the experimental part:
Experiments were carried out in six, adult, mongrel dogs of both sexes weighing between 18 and 26 kg. The dogs were anaesthetised with a bolus injection of sodium pentobarbitone (36 mg/kg intravenous; Nembutal, Boehringer Ingelheim) and then maintained on an infusion (2-3 mg/kg/hr). The animal was artificially ventilated, maintained at constant temperature and blood pressure and heart rate were monitored continuously.
The left kidney was exposed retroperitoneally and renal arterial blood flow was monitored continuously (Pernow & Lundberg, 1989a), using a transonic flow probe (Transonic System Inc., N.Y.). Postganglionic nerves to the kidney were isolated, cut and placed over bipolar, platinum electrodes for stimulation (1-10 Hz, 5-10 V, 1-5 msec).
The renal nerve was stimulated over a range of frequencies (1-10 Hz) for 30 secs and a frequency-response curve constructed. The responses were measured at the peak change in flow. […] Responses were reported as change in vascular resistance.

With “Ac-LRHYLNALTRQRY-NH2 [Ac[L28,A30,L31]NPY24-36]”, on Y2-like receptors, the “EC50 ΔP1%” value is 0.39 nmol.

As for “Ac-LRHYLNLLARQRY-NH2 [Ac[L28,L31,A32]NPY24-36]”, the “EC50 ΔP1%” value on Y2-like receptors worked out at 6.46 nmol.

Regarding “Ac-LRHYLALLTRQRY-NH2 [Ac[L28,A29,L31]NPY24-36]”, the “EC50 ΔP1%” value on Y2-like receptors was determined as 1.48 nmol.

For the substance “Ac-LRHYLNLLTRQRY-NH2 [Ac[L28,L31]NPY24-36]”, the “affinity for the neuropeptide Y Y2 receptor subtype” value in assay [1] is “significant affinity”. Besides, the “affinity for the neuropeptide Y Y1 receptor type” value in [2] is “no affinity”. Moreover, the “increase in cytosolic calcium” value in [3] is listed as “did hot stimulate”. Also, the “EC50 ΔP1%” value at Y2-like receptors turned out to be 3.16 nmol. Also, the IC50 with human Y2 receptor was found to be 3.9 nM.

In the case of “Ac-LRAYLNLLTRQRY-NH2 [Ac[A26,L28,L31]NPY24-36]”, at Y2-like receptors, the “EC50 ΔP1%” value is 1.26 nmol.

On to “Ac-LRHYANLLTRQRY-NH2 [Ac[A28,L31]NPY24-36]”, for which, at Y2-like receptors, the “EC50 ΔP1%” value is 2.75 nmol.

On to Neuropeptide Y [NPY], for which the “change of blood pressure” value in the assay on Y1 receptors (in vivo in rats, at the doses tested) is listed as “raised blood pressure significantly in a dose-dependent manner”.

Regarding “Ac[A26,A27,L28,L31]NPY24-36 (Ac-LRAALNLLTRQRY; ends and bridges not checked; UniProt P01303 52-64, looked up, variant H26A Y27A I28L I31L) [Ac[A26,27,L28,31]NPY24-36]”, the “in vivo activity at Y2 receptors (potency as inhibitor of the effect of vagal stimulation on heart rate)” value in the assay with Y2-like receptors is reported as “enhanced in vivo activity at Y2 receptors”.

In the case of “Ac-LRHYLNLATRQRY-NH2 [Ac[L28,A31]NPY24-36]”, the “EC50 ΔP1%” value at Y2-like receptors amounted to 0.78 nmol.

For the substance “(Leu^17, Glu^19, Ala^21, Ala^22, Glu^23, Leu^28, Leu^31) neuropeptide Y-(13-36) [ANA neuropeptide Y-(13-36)]”, in assay [4], the pressor activity entry is recorded as “retained significant pressor activity”. Further, the prejunctional activity result in [5] was “prejunctional activity equivalent to the whole neuropeptide Y molecule”.

Turning to “Ac-ARHYLNLLTRQRY-NH2 [Ac[A24,L28,L31]NPY24-36]”, the “EC50 ΔP1%” value on Y2-like receptors came to 0.46 nmol.

Turning to “Ac-ARHALNLLTRQRY-NH2 [Ac[A24,A27,L28,L31]NPY24-36, Ac[Ala24, Ala27, Leu28, Leu31]NPY(24-36)]”, at Y2-like receptors, the “EC50 ΔP1%” value is 0.89 nmol and the “in vivo activity at Y2 receptors (potency as inhibitor of the effect of vagal stimulation on heart rate)” value was “enhanced in vivo activity at Y2 receptors”. Besides, the “affinity for NPY Y2 receptors” value with human Y2 receptor (in words) is recorded as “high affinity for NPY Y2 receptors”. Further, the “direct effect on the circulation” value in the assay on Y1 receptors (40 nmol dose, Table 1) is “exerted no direct effect on the circulation”. In addition, the “inhibition of the increase of renal vascular resistance elicited by renal nerve stimulation” value in assay [6] was “almost completely inhibited the effect of nerve stimulation”.

In the case of “Ac[L28,I30]NPY24-36 (Ac-LRHYLNIITRQRY; ends and bridges not checked; UniProt P01303 52-64, looked up, variant I28L L30I)”, the “EC50 ΔP1%” value on Y2-like receptors stood at 1.26 nmol.

In the case of “Ac-LAHYLNLLTRQRY-NH2 [Ac[A25,L28,L31]NPY24-36]”, the “EC50 ΔP1%” value on Y2-like receptors is 1.58 nmol. The substance also registered an IC50 in the assay on human Y2 receptor of 2 nM.

With “Ac-LAHYRNLLTRQRY-NH2 [Ac[A25,R28,L31]NPY24-36]”, at Y2-like receptors, the “EC50 ΔP1%” value was determined as 1.95 nmol.

For “Ac-ARAALNAATRQRY-NH2 [Ac[A24,26,27,30,31,L28]NPY24-36]”, on Y2-like receptors, the “EC50 ΔP1%” value was determined as 0.56 nmol and the “in vivo activity at Y2 receptors (potency as inhibitor of the effect of vagal stimulation on heart rate)” value is “enhanced in vivo activity at Y2 receptors”.

In the case of “Ac-LRHALNLLTRQRY-NH2 [Ac[A27,L28,L31]NPY24-36]”, the “EC50 ΔP1%” value at Y2-like receptors came out at 0.52 nmol.

As for AcNPY 24-36, the “Increase in BP (rel to NPY)” value in the assay with Y1 receptors (anaesthetised rats, †: No response to 10 nmole dose) is given as “Of”.

The IC50 is the midpoint of a concentration-inhibition curve.
